# Test results taken from the supplement of paper PMC12613149.
# What was measured:
# [1] = collision cross section (TIMS, N2 drift gas) of the primary ion; higher = larger gas-phase ion size
# [2] = reversed-phase LC retention time (C18, 15 min MeOH gradient); higher = more hydrophobic / later elution
# [3] = ionization mode: ESI+, ion species: [M+H]+
# [4] = ionization mode: ESI+, ion species: [M]+
# [5] = ionization mode: ESI-, ion species: [M-H]-
Compound,"collision cross section [1, 3]","reversed-phase LC retention time [2, 3]","collision cross section [1, 4]","reversed-phase LC retention time [2, 4]","collision cross section [1, 5]","reversed-phase LC retention time [2, 5]"
CCOC(=O)NCCOc1ccc(Oc2ccccc2)cc1 [Fenoxycarb],180.55 Å²,15.2 min,–,–,–,–
CCCCCCCCCCCCCCCC[N+](C)(C)Cc1ccccc1 [Benzyldimethylhexadecylammonium],–,–,213.31 Å²,17.8 min,–,–
O=S(=O)(O)C(F)(F)C(F)(F)C(F)(F)C(F)(F)C(F)(F)C(F)(F)F [Perfluorohexanesulfonic acid],–,–,–,–,150.32 Å²,13.9 min
Nc1ccc(Oc2ccc(Cl)cc2Cl)cc1C(=O)O [Aminobifenox acid],173.06 Å²,15.4 min,–,–,169.52 Å²,13.2 min
CO/N=C(/C(=O)OC)c1ccccc1CO/N=C(\C)c1cccc(C(F)(F)F)c1 [Trifloxystrobin],188.81 Å²,16.3 min,–,–,–,–
NC12CC3CC(CC(C3)C1)C2 [Amantadine],138.51 Å²,8.82 min,–,–,–,–
CO/C=C(/C(=O)OC)c1ccccc1COc1cccc(C(F)(F)F)n1 [Picoxystrobin],174.95 Å²,15.2 min,–,–,–,–
"Oc1nc(Cl)c(Cl)cc1Cl [3,5,6-Trichloro-2-pyridinol]",–,–,–,–,125.88 Å²,11.2 min
C[C@@H](CCC(=O)O)C1CCC2C3C(=O)CC4C[C@H](O)CC[C@]4(C)C3CC[C@@]21C (stereo not given in full) [7-Oxolithocholic acid],204.58 Å²,15.8 min,–,–,208.67 Å²,14.3 min
CCCC(Cn1cncn1)c1ccc(Cl)cc1Cl (stereo not given) [Penconazole],166.33 Å²,15.5 min,–,–,–,–
CCCCC(CC)COC(=O)c1ccccc1C(=O)OCC(CC)CCCC (stereo not given) [Bis(2-ethylhexyl)phthalate],212.9 Å²,19.1 min,–,–,–,–
COc1nc(C)nc(NC(=O)NS(=O)(=O)c2ccccc2CCC(F)(F)F)n1 [Prosulfuron],188.2 Å²,13.9 min,–,–,189.48 Å²,11.9 min
C[Si](Cn1cncn1)(c1ccc(F)cc1)c1ccc(F)cc1 [Flusilazole],176.25 Å²,15.2 min,–,–,–,–
Cc1ncc([N+](=O)[O-])n1CCO [Metronidazole],132.43 Å²,5.53 min,–,–,–,–
Oc1ccc(Cl)cc1Cc1ccccc1 [Chlorophene],–,–,–,–,147.97 Å²,15.9 min
CCOC1Oc2ccc(OS(C)(=O)=O)cc2C1(C)C (stereo not given) [Ethofumesate],166.62 Å²,13.8 min,–,–,–,–
CCN(CC)c1nc(C)cc(OP(=S)(OC)OC)n1 [Pirimiphos-methyl],167.52 Å²,15.7 min,–,–,–,–
O=S(=O)(c1ccc(O)cc1)c1ccc(O)cc1 [Bisphenol S],155.2 Å²,9.38 min,–,–,154.29 Å²,7.15 min
O=C(c1ccccc1)c1ccc(O)cc1 [4-Hydroxybenzophenone],–,–,–,–,144.47 Å²,12 min
CCN1CCCC1CNC(=O)c1cc(S(=O)(=O)CC)c(N)cc1OC (stereo not given) [Amisulpride],193.4 Å²,7.75 min,–,–,–,–
Cc1cc(N)c2ccccc2n1 [4-Amino-2-methylquinoline],128.9 Å²,6.89 min,–,–,–,–
NC(=O)N1c2ccccc2CC(=O)c2ccccc21 [Oxcarbazepine],155.46 Å²,10.7 min,–,–,–,–

Compound,"collision cross section [1, 3]","reversed-phase LC retention time [2, 3]","collision cross section [1, 4]","reversed-phase LC retention time [2, 4]","collision cross section [1, 5]","reversed-phase LC retention time [2, 5]"
c1ccc2[nH]c(-c3cscn3)nc2c1 [Thiabendazole],138.79 Å²,8.08 min,–,–,–,–
O=C(CC(C(=O)OC1CCCCC1)S(=O)(=O)O)OC1CCCCC1 (stereo not given) [Dicyclohexyl sulfosuccinate],201.58 Å²,14.2 min,–,–,189.02 Å²,14.2 min
CC1CCN(CCCC(=O)c2ccc(F)cc2)CC1 [Melperon],163.5 Å²,9.83 min,–,–,–,–
"CN(C)C(=O)NC1CCCCC1 [3-Cyclohexyl-1,1-dimethylurea]",139.49 Å²,10.8 min,–,–,–,–
C[C@H](CCC(=O)O)[C@H]1CC[C@H]2[C@@H]3CC[C@@H]4C[C@H](O)CC[C@]4(C)[C@H]3C[C@H](O)[C@]12C [Deoxycholic acid],–,–,–,–,203 Å²,15.8 min
CC(C1=C(CCN(C)C)Cc2ccccc21)c1ccccn1 (stereo not given) [Dimethindene],171.03 Å²,10.4 min,–,–,–,–
CC1CCc2cc(F)cc3c(=O)c(C(=O)O)cn1c23 (stereo not given) [Flumequine],152.91 Å²,11.7 min,–,–,166.14 Å²,9.17 min
CCCCC(CC)COC(=O)c1ccc(C(=O)OCC(CC)CCCC)c(C(=O)OCC(CC)CCCC)c1 (stereo not given) [Tris(2-ethylhexyl)trimellitate],258.93 Å²,20.9 min,–,–,–,–
Oc1ccccc1-c1ccccc1 [2-Phenylphenol],–,–,–,–,134.42 Å²,13.9 min
CN(C/C=C/C#CC(C)(C)C)Cc1cccc2ccccc12 [Terbinafine],187.34 Å²,13.8 min,–,–,–,–
C[C@]12CCC(=O)C=C1CC[C@@H]1[C@@H]2C(=O)C[C@@]2(C)[C@H]1CC[C@]2(O)C(=O)CO [Cortisone],181.22 Å²,16.9 min,–,–,–,–
Cc1cc(=O)[nH]c(C(C)C)n1 [2-Isopropyl-6-methyl-pyrimidin-4-ol],131.58 Å²,7.51 min,–,–,–,–
CC[C@H]1OC(=O)[C@H](C)[C@@H](O[C@H]2C[C@@](C)(OC)[C@@H](O)[C@H](C)O2)[C@H](C)[C@@H](O[C@@H]2O[C@H](C)C[C@H](N(C)C)[C@H]2O)[C@](C)(O)C[C@@H](C)C(=O)[C@H](C)[C@@H](O)[C@]1(C)O [Erythromycin],259.69 Å²,13 min,–,–,–,–
CCCCCCCCCCOS(=O)(=O)O [Decylsulfate],–,–,–,–,159.61 Å²,14.9 min
CCNS(=O)(=O)C(F)(F)C(F)(F)C(F)(F)C(F)(F)C(F)(F)C(F)(F)C(F)(F)C(F)(F)F [2-N-Ethylperfluorooctanesulfonamide],–,–,–,–,178.3 Å²,17.6 min
Oc1ccc(C2(c3ccc(O)cc3)c3ccccc3-c3ccccc32)cc1 [Fluorene-9-bisphenol],–,–,–,–,194.22 Å²,15.3 min
Cn1c(=O)c2c(ncn2C)n(C)c1=O [Caffeine],139.07 Å²,7.7 min,–,–,–,–
COCCN(C(=O)CCl)c1c(C)cccc1C [Dimethachlor],152.09 Å²,13.3 min,–,–,–,–
CC/C(=C(/CC)c1ccc(O)cc1)c1ccc(O)cc1 [Diethylstilbestrol],–,–,–,–,175.03 Å²,14.5 min
C[C@]12CCC(=O)C=C1CC[C@@H]1[C@@H]2CC[C@@]2(C)[C@H]1CC[C@]2(C)O [17alpha-Methyltestosterone],178.22 Å²,14.7 min,–,–,–,–
CCCSP(=O)(OCC)Oc1ccc(Br)cc1Cl (stereo not given) [Profenofos],169.17 Å²,16.6 min,–,–,–,–
CCCCCCCCn1sc(Cl)c(Cl)c1=O [DCOIT],166.39 Å²,16.9 min,–,–,–,–
